Values of other authors as cited in patent publication US12379360B2, “Detection system for an electronic nose allowing a physicochemical classification of odours and electronic nose comprising such a system” (COMMISSARIAT À L'ÉNERGIE ATOMIQUE ET AUX ÉNERGIES …, priority 2019, dated 2025).

Key:
[1] = n-octanol/water partition coefficient
[2] = pure compound
[3] = scale of R. M. Sweet and D. Eisenberg, reference [4]

| logP [1] | n (refractive index) [2] | hydrophobicity index [3] | SMILES |
| --- | --- | --- | --- |
| 1.5 | 1.411 |  | CCCCCN [n-PA, n-pentylamine] |
| −0.6 | 1.458 |  | NCCCCCN [DAP, 1,5-diaminopentane] |
|  |  | −0.74 | NC(=O)C[C@H](N)C(=O)O [asparagine] |
|  |  | 0.12 | O=C(O)[C@@H]1CCCN1 [proline] |
| 1.4 | 1.401 |  | CCN(CC)CC [TEA, triethylamine] |
| 0.9 | 1.435 |  | CCCSCCC [DPS, dipropylsulphide] |
| −0.9 | 1.457 |  | NCCCCN [DAB, 1,4-diaminobutane] |

| SMILES | logP [1] | n (refractive index) [2] | hydrophobicity index [3] |
| --- | --- | --- | --- |
| CSC [DMS, dimethylsulphide] | 2.7 | 1.4487 |  |
| CN(C)C [TMA, trimethylamine] | 0.3 | 1.3631 |  |
